Data set [1] in a line: solubility in water of the thioureido-cyclodextrins. The data set is classed as physicochemical.
For data set [2] the following is noted: cited from earlier work.

The structures appear in SMILES notation. Where “and” joins values, the source holds several entries; their conditions need not be identical. Identical values can stand only once.

With `CO[C@H]1O[C@H](CNC(=S)NC[C@H]2O[C@@H]3O[C@H]4[C@H](O)[C@@H](O)[C@@H](O[C@H]5[C@H](O)[C@@H](O)[C@@H](O[C@H]6[C@H](O)[C@@H](O)[C@@H](O[C@H]7[C@H](O)[C@@H](O)[C@@H](O[C@H]8[C@H](O)[C@@H](O)[C@@H](O[C@H]9[C@H](O)[C@@H](O)[C@@H](O[C@H]2[C@H](O)[C@H]3O)O[C@@H]9CO)O[C@@H]8CO)O[C@@H]7CO)O[C@@H]6CO)O[C@@H]5CO)O[C@@H]4CO)[C@@H](OC(C)=O)[C@H](OC(C)=O)[C@H]1OC(C)=O` [compound n°3], the solubility in water in data set [1] is 558 g/l and 373 mM.

For the compound `CO[C@H]1O[C@H](CNC(=S)NC[C@H]2O[C@@H]3O[C@H]4[C@H](O)[C@@H](O)[C@@H](O[C@H]5[C@H](O)[C@@H](O)[C@@H](O[C@H]6[C@H](O)[C@@H](O)[C@@H](O[C@H]7[C@H](O)[C@@H](O)[C@@H](O[C@H]8[C@H](O)[C@@H](O)[C@@H](O[C@H]9[C@H](O)[C@@H](O)[C@@H](O[C@H]2[C@H](O)[C@H]3O)O[C@@H]9CO)O[C@@H]8CO)O[C@@H]7CO)O[C@@H]6CO)O[C@@H]5CO)O[C@@H]4CO)[C@@H](O)[C@H](O)[C@H]1O` [compound n°2], in data set [1], the solubility (as a rule, the dissolved amount per volume that the medium holds) was 710000 µg/mL and 518000 µM. For `CC(=O)O[C@@]12CO[C@@H]1C[C@H](O)[C@@]1(C)C(=O)[C@H](O)C3=C(C)[C@@H](OC(=O)[C@H](O)[C@@H](NC(=O)OC(C)(C)C)c4ccccc4)C[C@@](O)([C@@H](OC(=O)c4ccccc4)[C@H]21)C3(C)C` [Taxotere], the “solubility in water of Taxotere, raised by encapsulation” value in data set [2] (encapsulated in 6^I -S-α-maltosyl-6^I -thiocyclo-maltaheptaose (WO-A-95/19994)) is 6500 µg/mL. For the same compound, the “solubility in water of Taxotere” value in data set [2] (without cyclodextrin) was 4 µg/mL.

As for `CNC(=S)NC[C@H]1O[C@@H]2O[C@H]3[C@H](O)[C@@H](O)[C@@H](O[C@H]4[C@H](O)[C@@H](O)[C@@H](O[C@H]5[C@H](O)[C@@H](O)[C@@H](O[C@H]6[C@H](O)[C@@H](O)[C@@H](O[C@H]7[C@H](O)[C@@H](O)[C@@H](O[C@H]8[C@H](O)[C@@H](O)[C@@H](O[C@H]1[C@H](O)[C@H]2O)O[C@@H]8CO)O[C@@H]7CO)O[C@@H]6CO)O[C@@H]5CO)O[C@@H]4CO)O[C@@H]3CO` [compound n°1, 6^I -desoxy-6^I -(N'-methylthioureido) cyclomaltoheptaose], the solubility in data set [1] was 775000 µg/mL and 640000 µM.

Values taken from patent US6080733A, “Thioureido-cyclodextrins, utilized in particular to solubilize anti-tumor, and antiparasitic agents and their preparation processes” (Centre National de la Recherche Scientifique, priority 1996, dated 2000).
